Values after ≈ are worked out from the molar mass of the structure shown.
How the values were obtained:
[1] = aqueous solutions; cited from earlier work
in vivo = settings: for AUC(0-inf): AUC(0-inf) of D-Methionine; for concentration at 0 h: 0.00 h (predose); for concentration at 0.5 h: 0.50 h; for Cmax: Cmax of D-Methionine
Procedure: (§1) Twenty-six male Sprague-Dawley rats weighing approximately 200 to 300 g were used for the study. The jugular vein of six animals were cannulated and the rest of the animals were used without any further preparation.
(§2) Dosing was conducted on two occasions. […] The drug was prepared in a suspension formulation in accordance with the present invention. The blood samples (approximately 0.5 mL/sample) were collected from each animal at predose, 15, 30 minutes, 1, 2, 4 and 6 hours postdose into microtainer tubes containing lithium heparin as an anticoagulant. Replacement blood was infused into each animal following each blood draw. […] The drug was prepared in a solution formulation. […] Blood samples were collected from each animal via the orbital sinus at predose, 2, 15, 30 minutes, 1, 2, 4 and 6 hours postdose. Each animal was bled twice. The blood was centrifuged immediately and the resulting plasma in tubes was flash frozen in liquid nitrogen and stored at approximately −70° C. until analysis.
L-Methinione can also be detected under the same HPLC conditions.
Descriptive pharmacokinetic parameters were determined by standard model independent methods (Gibaldi, M. and Perrier, D. Pharmacokinetics, Second Edition, Marcel Dekker, Inc., New York, 1982) based on the mean plasma concentration-time data. The plasma concentrations were rounded to one decimal place before the calculation. Plasma samples with concentrations below the quantifiable limit (BQL) were assigned values of zero for the calculation of mean plasma concentration.

[2] = humans, cited from earlier work
[3] = D-methionine IV 150 mg/kg, PO 150 or 300 mg/kg
Procedure: as §1, §2

[4] = system: cisplatin induced hair cell loss; settings: rat model; cited from earlier work
[5] = system: oxidative stress-induced ototoxicity and nephrotoxicity; settings: in vivo; cited from earlier work
[6] = male, Sprague-Dawley, rat, plasma, iv, 150 mg/kg, Mean Plasma Concentrations of D-Methionine, IV 150 mg/kg, solution
[7] = male, Sprague-Dawley, rat, plasma, po, 150 mg/kg, PO 150 mg/kg, solution
[8] = male, Sprague-Dawley, rat, plasma, po, 150 mg/kg, PO 150 mg/kg, suspension
[9] = male, Sprague-Dawley, rat, plasma, po, 150 mg/kg, Mean Plasma Concentrations of D-Methionine, PO 150 mg/kg, solution
[10] = male, Sprague-Dawley, rat, plasma, po, 150 mg/kg, Mean Plasma Concentrations of D-Methionine, PO 150 mg/kg, suspension
[11] = male, Sprague-Dawley, rat, plasma, po, 300 mg/kg, PO 300 mg/kg, suspension
[12] = male, Sprague-Dawley, rat, plasma, po, 300 mg/kg, Mean Plasma Concentrations of D-Methionine, PO 300 mg/kg, suspension

CSCC[C@@H](N)C(=O)O [D-Methionine, D-methionine]
solubility [1]: 50 mg/mL (≈ 335 mM)
time point at which Cmax was observed (in vivo; PO 150 mg/kg, solution, first collection time point): 30 min
first-pass metabolism suggested by systemic clearance (in vivo; from CL after IV 150 mg/kg): will not be subjected to extensive first-pass metabolism
clearance (in vivo; male, Sprague-Dawley, rat, plasma, iv, 150 mg/kg): 9.28 mL/min/kg
AUC(0-inf) (in vivo; male, Sprague-Dawley, rat, plasma, iv, 150 mg/kg, IV 150 mg/kg, solution): 269 µg·h/mL
concentration at 0 h (in vivo; [6]): 0 ng/mL
concentration at 0.03 h (in vivo; male, Sprague-Dawley, rat, plasma, iv, 150 mg/kg, Mean Plasma Concentrations of D-Methionine, IV 150 mg/kg, solution, 0.03 h): 471 ng/mL
concentration at 0.25 h (in vivo; [6]): 220 ng/mL
concentration at 0.5 h (in vivo; [6]): 106 ng/mL
concentration at 1 h (in vivo; [6]): 64 ng/mL
concentration at 2 h (in vivo; [6]): 32.2 ng/mL
concentration at 4 h (in vivo; [6]): 6.13 ng/mL
concentration at 6 h (in vivo; [6]): 1.45 ng/mL
half-life (in vivo; male, Sprague-Dawley, rat, plasma, iv, 150 mg/kg, T1/2 (terminal half-life) of D-Methionine, IV 150 mg/kg, solution): 54 min
bioavailability (in vivo; male, Sprague-Dawley, rat, plasma, oral, 150 mg/kg): 61.3%
Tmax (in vivo; male, Sprague-Dawley, rat, plasma, po, 150 mg/kg): 30 min
AUC(0-inf) (in vivo; [7]): 165 µg·h/mL
AUC(0-inf) (in vivo; [8]): 120 µg·h/mL
Cmax (in vivo; [7]): 77.1 µg/mL
Cmax (in vivo; [8]): 71.1 µg/mL
concentration at 0 h (in vivo; [9]): 0 ng/mL
concentration at 0.5 h (in vivo; [9]): 77.1 ng/mL
concentration at 1 h (in vivo; [9]): 54.1 ng/mL
concentration at 2 h (in vivo; [9]): 41.7 ng/mL
concentration at 4 h (in vivo; [9]): 7.67 ng/mL
concentration at 6 h (in vivo; [9]): 3.4 ng/mL
concentration at 12 h (in vivo; male, Sprague-Dawley, rat, plasma, po, 150 mg/kg, Mean Plasma Concentrations of D-Methionine, PO 150 mg/kg, solution, 12.00 h): 0 ng/mL
concentration at 0 h (in vivo; [10]): 0 ng/mL
concentration at 0.25 h (in vivo; [10]): 69.5 ng/mL
concentration at 0.5 h (in vivo; [10]): 71.1 ng/mL
concentration at 1 h (in vivo; [10]): 44.1 ng/mL
concentration at 2 h (in vivo; [10]): 20.9 ng/mL
concentration at 4 h (in vivo; [10]): 4 ng/mL
concentration at 6 h (in vivo; [10]): 1.7 ng/mL
half-life (in vivo; male, Sprague-Dawley, rat, plasma, po, 150 mg/kg, T1/2 (terminal half-life) of D-Methionine, PO 150 mg/kg, solution): 66 min
half-life (in vivo; male, Sprague-Dawley, rat, plasma, po, 150 mg/kg, T1/2 of D-Methionine, PO 150 mg/kg, suspension): 60 min
Tmax (in vivo; male, Sprague-Dawley, rat, plasma, po, 300 mg/kg): 30 min
AUC(0-inf) (in vivo; [11]): 359 µg·h/mL
Cmax (in vivo; [11]): 175 µg/mL
concentration at 0 h (in vivo; [12]): 0 ng/mL
concentration at 0.25 h (in vivo; [12]): 120 ng/mL
concentration at 0.5 h (in vivo; [12]): 175 ng/mL
concentration at 1 h (in vivo; [12]): 128 ng/mL
concentration at 2 h (in vivo; [12]): 71.4 ng/mL
concentration at 4 h (in vivo; [12]): 22.7 ng/mL
concentration at 6 h (in vivo; [12]): 5.5 ng/mL
half-life (in vivo; male, Sprague-Dawley, rat, plasma, po, 300 mg/kg, T1/2 of D-Methionine, PO 300 mg/kg, suspension): 66 min
terminal half-life (conclusion) (in vivo; rats, IV and PO): approximately one hour
plasma levels compared with L-methionine [2]: higher plasma levels than L-methionine
fraction excreted without conversion to the L-isomer ([2]; except in L-methionine deprivation): 60-70%
mortality [3]: no mortality occurred
effect on cisplatin damage to the stria vascularis [4]: markedly reduce cisplatin damage to the stria vascularis
effect on cisplatin induced hair cell loss [4]: prevent cisplatin induced hair cell loss
effect on oxidative stress-induced ototoxicity and nephrotoxicity associated with cisplatin [5]: effectively prevent

Reference: patent US20060058390A1 (priority 2004, published 2006)
